For series [1], the system named is Capan-1. Put plainly: In vitro cytotoxicity and combination study, crystal violet. In kind it is cell-based, human. The settings on record: 72 hr of exposure. From the text: (§1) If CI near to 1 indicates additive effect (ADD), CI>1 indicates antagonism (ANT), CI<1 indicates synergism (SYN).
The test system of series [2] is Capan-2. The series is described as above. In kind it is cell-based, human. The following applies: 72 hr of exposure.
Excerpt: as §1

Series [3] has as its system L3.6pl. The series is described as above. It counts as cell-based, human. The following applies: 72 hr of exposure.
Excerpt: as §1

In series [4] the test system is AsPc-1. Described as above. The settings on record: 72 hr of exposure. It counts as cell-based, human.
Excerpt: as §1

The test system of series [5] is A375-M Cells. Put plainly: Combination studies of GrB/scFvMEL with chemotherapeutic agents. The following applies: for antitumor activity on co-administration with GrB/scFvMEL: 72 hours.
Procedure: Cells in exponential growth phase were plated into 96-well plates. After 24 hr, the cells were treated with drug-containing medium. At the end of the indicated incubation period, growth inhibition was assessed by crystal violet staining. In order to determine the effects of sequencing, cells were treated with different two sequences.
I.C.25 dose of either GrB/scFvMEL or chemotherapeutic agents have been used in combination studies.
The test system of series [6] is L3.6pl cells. Description: Western blot of signal transduction effects. In kind it is cell-based, human. The arrangement: key to Caspase-8 cleavage / Caspase-3 cleavage / PARP cleavage / Akt / p-Akt / Bcl-2: NE represents no effect. The settings on record: IC25 doses. The procedure: Cell lysates ([…]) were fractionated by 8-15% SDS-PAGE and transferred on Immobilon-P nitrocellulose membranes (Schleicher & Schuell Inc., Keene, N.H.). Membranes were blocked for 2 hours in Tris-buffered saline (TBS) containing 3% bovine serum albumin. Monoclonal anti-HER-2/neu Ab (Oncogene Research Products, San Diego, Calif.), rabbit polyclonal anti-HER-1 Ab, rabbit polyclonal anti-TNFR-1 Ab, rabbit polyclonal anti-TNFR-2 Ab, rabbit polyclonal anti-phospho Akt Ab, rabbit polyclonal anti-Akt, and goat anti-β-actin Ab were used for immunoblotting. Goat anti-mouse/goat anti-rabbit or swain anti-goat antibodies conjugated with horseradish peroxidase (Bio-Rad Laboratories, Hercules, Calif.) were used to visualize immunoreactive proteins at a 1:4000 dilution using ECL detection reagent (Amersham Pharmacia Biotech Inc., Piscataway, N.J.).
HER-2/neu over-expression results in activation of different downstream pathways such as the Akt kinase pathway, which leads to cell proliferation and cell survival. […] The activation of Akt kinase was then assessed by Western blot analysis using antibodies to Akt and to phospho-Akt. […]
To determine whether caspase-8 and caspase-3 were activated in L3.6pl cells during 5-FU+scFv23/TNF-induced cell death, the cleavage of caspase-8, caspase-3, and its substrate poly (ADP)-ribose polymerase (PARP) was investigated.
For orientation: Immunoblotting shows a protein as a band on a membrane.

Series [7] has as its system AsPc-1, Capan-1, Capan-2, and L3.6pl. Description: cells. The following applies: Homo sapiens, Pancreatic cancer cell.
Procedure: (§4) To examine the potential mediation of the synergistic effect of combination treatments by activation of caspase-3 cells were pretreated with or without 100 μM caspase-3 inhibitor (Ac-DEVD-CHO) for 3 hr and then treated with their individual IC25 concentrations. After incubation for an additional 72 hr, remaining adherent cells were stained by adding 50 μl of crystal violet solution (0.5% w/v in 20% MeOH/H2O). Dye-stained cells were solubilized by addition of 100 μl of Sorenson's buffer [100 mM sodium citrate (pH 4.2) in 50% ethanol], and absorbance was measured at 630 nm using an ELISA plate reader (Bio-Tek Instruments, Inc., Winooski, Vt.).
Series [8] has the same test system. The following applies: pancreatic cancer cell lines.
Procedure: as §4
In series [9] the test system is parental A375 cells. Put plainly: Cytotoxicity on parental and doxorubicin-resistant cells. The settings on record: Homo sapiens, A-375; 72 hours. It counts as cell-based. How it is done:
(§2) To examine the cytotoxicity of GrB/scFvMEL or MEL/sFv/rGel, melanoma cells were plated on 96-well plates at a density of 4×10^3 cells per well and allowed to adhere for 24 hr at 37° C. in 5% CO2. After 24 hr, the medium was replaced with medium that contained various concentrations of fusion proteins. […] The percent of control refers to the percentage of cells in the drug-treated wells compared to that of control (untreated) wells.
(§3) Expression of the gp240 antigen was assessed by ELISA using ZME-018 antibody specifically recognizing gp240 antigen.

Series [10] deals with A375 doxorubicin-resistant (A375DR). The description is as above. In kind it is cell-based. The following applies: Homo sapiens, A-375; 72 hours. How it is done: as §2, §3
The target in series [11] is gp240 antigen (high-molecular-weight glycoprotein gp240 on human melanoma cells) (human) (UniProt Q6UVK1). Put plainly: cell-based or functional assay.
Chain of gp240 antigen (high-molecular-weight glycoprotein gp240 on human melanoma cells) (human) (Q6UVK1 30-2322): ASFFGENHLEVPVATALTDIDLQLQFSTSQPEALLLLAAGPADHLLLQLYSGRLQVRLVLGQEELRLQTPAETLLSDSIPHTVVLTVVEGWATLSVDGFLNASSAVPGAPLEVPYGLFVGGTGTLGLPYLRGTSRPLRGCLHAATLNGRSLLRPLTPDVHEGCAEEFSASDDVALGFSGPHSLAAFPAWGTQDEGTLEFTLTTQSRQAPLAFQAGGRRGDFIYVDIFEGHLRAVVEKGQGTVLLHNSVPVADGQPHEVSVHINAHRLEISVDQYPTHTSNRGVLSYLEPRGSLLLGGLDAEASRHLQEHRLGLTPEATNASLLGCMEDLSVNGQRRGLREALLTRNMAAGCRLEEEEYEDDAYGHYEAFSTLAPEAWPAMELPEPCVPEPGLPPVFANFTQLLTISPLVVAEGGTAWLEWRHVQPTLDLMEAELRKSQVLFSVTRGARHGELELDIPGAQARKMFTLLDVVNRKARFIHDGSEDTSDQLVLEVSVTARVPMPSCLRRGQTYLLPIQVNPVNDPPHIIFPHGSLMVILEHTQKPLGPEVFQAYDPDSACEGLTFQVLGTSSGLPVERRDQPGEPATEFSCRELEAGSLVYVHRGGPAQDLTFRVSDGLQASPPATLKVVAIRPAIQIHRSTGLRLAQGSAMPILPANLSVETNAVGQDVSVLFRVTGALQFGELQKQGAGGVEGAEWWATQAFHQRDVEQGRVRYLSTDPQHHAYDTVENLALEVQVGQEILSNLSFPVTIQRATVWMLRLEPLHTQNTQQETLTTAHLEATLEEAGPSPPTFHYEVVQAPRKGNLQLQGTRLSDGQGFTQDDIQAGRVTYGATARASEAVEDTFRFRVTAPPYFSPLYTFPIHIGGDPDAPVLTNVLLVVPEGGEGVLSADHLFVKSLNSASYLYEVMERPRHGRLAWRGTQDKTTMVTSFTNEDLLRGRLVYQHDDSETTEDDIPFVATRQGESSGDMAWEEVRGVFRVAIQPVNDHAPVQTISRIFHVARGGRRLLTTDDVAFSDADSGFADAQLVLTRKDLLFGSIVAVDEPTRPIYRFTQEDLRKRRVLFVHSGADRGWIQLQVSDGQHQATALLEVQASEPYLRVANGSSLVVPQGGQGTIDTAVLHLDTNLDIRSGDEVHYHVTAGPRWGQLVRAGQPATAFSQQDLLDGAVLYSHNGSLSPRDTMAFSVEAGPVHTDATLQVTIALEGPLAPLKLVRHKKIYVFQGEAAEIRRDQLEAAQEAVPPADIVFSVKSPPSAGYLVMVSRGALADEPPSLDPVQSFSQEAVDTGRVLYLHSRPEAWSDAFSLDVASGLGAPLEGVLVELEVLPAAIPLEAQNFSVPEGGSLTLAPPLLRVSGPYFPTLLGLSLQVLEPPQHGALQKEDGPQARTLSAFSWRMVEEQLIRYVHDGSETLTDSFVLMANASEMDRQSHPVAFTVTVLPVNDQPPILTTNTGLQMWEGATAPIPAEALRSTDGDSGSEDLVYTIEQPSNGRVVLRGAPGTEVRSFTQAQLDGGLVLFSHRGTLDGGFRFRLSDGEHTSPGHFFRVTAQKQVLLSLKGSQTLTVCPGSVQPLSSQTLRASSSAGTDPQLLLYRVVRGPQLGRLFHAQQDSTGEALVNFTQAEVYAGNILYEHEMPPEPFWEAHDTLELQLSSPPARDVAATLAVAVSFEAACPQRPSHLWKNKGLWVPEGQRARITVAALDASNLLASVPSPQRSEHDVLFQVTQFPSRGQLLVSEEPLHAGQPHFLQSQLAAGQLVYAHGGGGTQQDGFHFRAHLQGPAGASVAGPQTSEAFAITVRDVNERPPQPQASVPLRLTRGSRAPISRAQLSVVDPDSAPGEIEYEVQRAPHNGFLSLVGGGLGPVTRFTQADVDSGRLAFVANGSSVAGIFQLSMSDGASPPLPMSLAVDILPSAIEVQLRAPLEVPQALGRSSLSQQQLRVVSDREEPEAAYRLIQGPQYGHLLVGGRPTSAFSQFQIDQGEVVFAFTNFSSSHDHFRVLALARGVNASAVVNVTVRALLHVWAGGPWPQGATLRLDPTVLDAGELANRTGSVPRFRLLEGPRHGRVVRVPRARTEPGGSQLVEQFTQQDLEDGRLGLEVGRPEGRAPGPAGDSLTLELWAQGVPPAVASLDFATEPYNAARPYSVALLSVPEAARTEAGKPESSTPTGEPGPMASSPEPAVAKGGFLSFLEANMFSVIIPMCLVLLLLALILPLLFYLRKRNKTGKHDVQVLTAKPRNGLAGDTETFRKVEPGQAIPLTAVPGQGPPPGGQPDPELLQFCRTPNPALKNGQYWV
For series [12] the target is unchanged. Put plainly: flow cytometry on TXM-18L cells stained with ZME-018 IgG2a and APC goat anti-mouse, against an isotype control.
The target is the same in series [13]. Description: flow cytometry on MEL-526 cells stained with ZME-018 IgG2a and APC goat anti-mouse, against an isotype control. A general note: In flow cytometry, cells or beads pass a laser one at a time.
For series [14] the target is unchanged. Description: flow cytometry on A375-M cells stained with ZME-018 IgG2a and APC goat anti-mouse, against an isotype control.
The target is the same in series [15]. Description: flow cytometry on TXM-1 cells (very low gp240) stained with ZME-018 IgG2a and APC goat anti-mouse, against an isotype control.
The test system of series [16] is HER-2-overexpressing SKBR-3/H cells. Put plainly: Western blot, DNA fragmentation, TUNEL: signal transduction effects. The following applies: 200 nM. Set-up: key to Akt / Caspase-8 cleavage / Caspase-3 cleavage / PARP cleavage / DNA fragmentation / IκB-α / TRADD / TRAF-2: NE represents no effect. In kind it is cell-based, human. The procedure:
Apoptosis was detected by DNA fragmentation and TUNEL assay. […] After 24 hr and 48 hr, cells were washed with PBS, resuspended in a DNA extraction buffer containing 5 mM Tris-HCl, pH 8, 50 mM EDTA, 10 μg/ml RNAse, and 0.25% SDS and then incubated for 1 hr at 37° C. To remove protein, resuspended cell lysates were treated with 100 μg/ml proteinase K for 3 hr at 50° C. DNA was extracted using phenol and chloroform followed by ethanol precipitation. The genomic DNA was resuspended in Tris-EDTA (pH 8) and was fractionated by electrophoresis on a 1% agarose gel containing ethidium bromide.
The cells were washed with PBS, permeabilized (0.1% Triton X-100, 0.1% sodium citrate), and then fixed in 4% paraformaldehyde. Fixed cells were stained with in situ cell death detection kit (Roche). Cells undergoing apoptosis were identified by fluorescence microscopy.
After treatment, cells were washed twice with phosphate buffered saline (PBS) and lysed on ice for 20 min in 0.3 ml of lysis buffer (10 mM Tris-HCl, pH 8, 60 mM KCl, 1 mM EDTA, 1 mM DTT, 0.2% NP-40). Cell lysates (50 μg) were fractionated by 8-15% SDS-PAGE and electrophoretically transferred to Immobilon-P nitrocellulose membranes (Schleicher & Schuell Inc., Keene, N.H.). Membranes were blocked 2 hrs in Tris-buffered saline (TBS) containing 3% bovine serum albumin and then probed with various antibodies (monoclonal anti-HER-2/neu Ab, rabbit polyclonal anti-TNFR1 Ab, rabbit polyclonal anti-TNFR2 Ab, rabbit polyclonal anti-caspase-8 Ab, monoclonal anti-caspase-3 Ab, monoclonal anti-PARP Ab, rabbit polyclonal anti-TRADD Ab, rabbit polyclonal anti-TRAF2 Ab, rabbit polyclonal anti-IκB-α Ab, rabbit polyclonal anti-phospho Akt Ab, and rabbit polyclonal anti-Akt Ab). Goat anti-mouse/goat anti-rabbit or swain anti-goat antibodies conjugated with horseradish peroxidase (Bio-Rad Laboratories, Hercules, Calif.) were used to visualize immunoreactive proteins at a 1:4000 dilution using ECL detection reagent (Amersham Pharmacia Biotech Inc., Piscataway, N.J.).

Setting [17] is: Seq. III: pretreated with GrB/scFvMEL for 6 h, then agent for 72 h.
The mark [18] stands for this setting: Seq. IV: agent for 72 h without GrB/scFvMEL pretreatment.

As a reminder, the IC50 is the point on the concentration scale where inhibition reaches its midpoint. For the molecule `O=c1[nH]cc(F)c(=O)[nH]1` [5-Fluorouracil, 5-fluorouracil], the IC50 in series [1] (Homo sapiens, CAPAN-1) amounted to 6000 nM. For the same molecule, the IC50 in series [2] (Homo sapiens, Capan-2) amounted to 300 µM. The IC50 in series [3] (Homo sapiens, L3.6pl) came out at 1000 nM. Further, the IC50 in series [4] (Homo sapiens, ASPC1) was 7.5 µM. Also, the “antitumor activity on co-administration with GrB/scFvMEL” value (“antitumor activity … with GrB/scFvMEL” below) in series [5] is on record as “additive”. Moreover, the “% cytotoxicity” value in series [5] (setting [17]) amounted to 44.43 ± 2.118%. The “% cytotoxicity” value in [5] (setting [18]) worked out at 21.90 ± 0.794%. Further, in series [6], the Akt result was “NE”, the Bcl-2 result is given as “NE”, the “inhibition of Bcl-2 expression levels” value is “no impact” and the p-Akt entry was “NE”. Moreover, in [6] (48 hr), the Caspase-3 cleavage entry is recorded as “NE”, the Caspase-8 cleavage entry is recorded as “NE” and the PARP cleavage result is “NE”. Further, the IC50 in series [7] lay within 1000 to 300000 nM.
As for `Nc1ccn([C@@H]2O[C@H](CO)[C@@H](O)[C@@H]2O)c(=O)n1` [Ara C, cytarabine], the “antitumor activity … with GrB/scFvMEL” value in series [5] is reported as “additive”. Besides, the “% cytotoxicity” value is on record as 68.70 ± 0.950% in series [5] (setting [17]) and 62.10 ± 1.054% in [5] (setting [18]).
As for `N.N.[Cl][Pt][Cl]` [Cisplatin], the IC50 was 4500 nM in series [1], 50 µM in series [2], 3600 nM in series [3] and 14 µM in series [4]. Besides, the “antitumor activity … with GrB/scFvMEL” value in series [5] was “synergistic”. For the same molecule, the “cytotoxic effect of agent combined with scFv23/TNF” value in [8] is listed as “antagonistic cytotoxic effects in 3/4 cell lines”.
`COc1cccc2c1C(=O)c1c(O)c3c(c(O)c1C2=O)C[C@@](O)(C(=O)CO)C[C@@H]3O[C@H]1C[C@H](N)[C@H](O)[C@H](C)O1` [Doxorubicin]: the IC50 in series [9] was 0.5 nM; in series [10], 200 nM; in [1] (Homo sapiens, CAPAN-1), 60 nM; in series [2] (Homo sapiens, Capan-2), 0.5 µM; in series [3] (Homo sapiens, L3.6pl) it was 30 nM; in series [4] (Homo sapiens, ASPC1), 0.32 µM. Also, the half-maximal inhibitory concentration (IC50) in series [7] was 6 to 700 nM. Moreover, in [5], the “antitumor activity … with GrB/scFvMEL” value is recorded as “synergistic”. The “% cytotoxicity” value came out at 33.73 ± 1.590% in series [5] (setting [17]) and 30.33 ± 1.093% in series [5] (setting [18]).
With `COc1cc([C@@H]2c3cc4c(cc3[C@@H](O[C@@H]3O[C@@H]5CO[C@@H](C)O[C@H]5[C@H](O)[C@H]3O)[C@H]3COC(=O)[C@H]23)OCO4)cc(OC)c1O` [Etoposide], the half-inhibitory concentration (IC50) was 2000 nM in [1] (Homo sapiens, CAPAN-1); 40 µM in [2] (Homo sapiens, Capan-2); 2000 nM in series [3] (Homo sapiens, L3.6pl); 28 µM in series [4] (Homo sapiens, ASPC1); 1000 to 300000 nM in series [7]. Besides, the “antitumor activity … with GrB/scFvMEL” value in [5] is listed as “additive”. Further, the “% cytotoxicity” value is given as 59.80 ± 1.986% in series [5] (setting [17]) and 51.27 ± 1.102% in series [5] (setting [18]).
As for `Nc1ccn([C@@H]2O[C@H](CO)[C@@H](O)C2(F)F)c(=O)n1` [Gemcitabine], the IC50 was 20 nM in series [1] (Homo sapiens, CAPAN-1); 0.15 µM in series [2] (Homo sapiens, Capan-2); 6 nM in series [3] (Homo sapiens, L3.6pl); 0.2 µM in series [4] (Homo sapiens, ASPC1); 6 to 700 nM in series [7]. Further, the “cytotoxic effect of agent combined with scFv23/TNF” value in series [8] is listed as “antagonistic cytotoxic effects in 3/4 cell lines”.
For the molecule `CC[C@]1(O)C[C@H]2CN(CCc3c([nH]c4ccccc34)[C@@](C(=O)OC)(c3cc4c(cc3OC)N(C=O)[C@H]3[C@@](O)(C(=O)OC)[C@H](OC(C)=O)[C@]5(CC)C=CCN6CC[C@]43[C@@H]65)C2)C1` [VCR, vincristine], the “antitumor activity … with GrB/scFvMEL” value in series [5] is “synergistic”.
In [11], “GrB/scFvMEL fusion construct (from UniProt P10144 21-247)” came in with an I.C.50, 72-h cytotoxicity (crystal violet), A375-M cells of 32.1 nM; an I.C.50, 72-h cytotoxicity (crystal violet), MEL-526 cells of 50 nM; an I.C.50, 72-h cytotoxicity (crystal violet), TXM-1 cells (very low-level gp240 expression) greater than 1 µM; an I.C.50, 72-h cytotoxicity (crystal violet), TXM-13 cells of 200 nM. The I.C.50, 72-h cytotoxicity (crystal violet), TXM-18L cells in series [11] amounted to 158 nM.
With monoclonal antibody ZME-018 IgG2a, the Gp240 Antigen % positive in [12] worked out at 40.9%; in [13] it was 97.8%; in series [14], 98.9%; in series [15], 4.6%.

B1: scFv23: single chain antibody recognizing the cell surface domain of HER-2/neu (protein)
scFv: DVQLTQSPAILSASPGEKVTMTCRATPSVSYMHWYQQKPGSSPKPWIYTTSNLASGVPARFSGGGSGTSYSLTVSRVEAEDAATYYCQQWSRSPPTFGGGSKLEIKGSTSGSGKSSEGKGVQLQESGPEVVKPGGSMKISCKTSGYSFTGHTMNWVKQSHGKNLEWIGLINPYNGDTNYNQKFKGKATFTVDKSSSTAYMELLSLTSEDSAVYYCARRVTDWYFDVWGAGTTVTVSS
For the molecule B1, in series [16], the Akt result was “NE”, the Caspase-3 cleavage result is listed as “NE”, the Caspase-8 cleavage result was “NE” and the DNA fragmentation entry is “NE”. For the same molecule, in series [16], the IκB-α entry is recorded as “NE*”, the PARP cleavage entry is given as “NE”, the TRADD entry is given as “NE” and the TRAF-2 result is “NE”. In addition, the p-Akt result in [16] was “↑”.

The record behind these values is patent US20060263368A1, “Targeted chimeric molecules for cancer therapy” (Research Development Foundation, priority 2005, published 2006).
